Results from patent US6355799B1, “Substituted benzene compounds, process for their preparation, and herbicidal and defoliant compositions containing them” (ISK Americas Incorporated, priority 1997, dated 2002).

What was measured:
Format in all cases: in vivo
[1] = test system: upland rice (Oryza sp., var. Tebonnet, RICE); assay: Post-emerge test, crop safety; settings: post-emerge, 14 days after application, rating scale 0-100
How it was run: (§1)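 Sandy loam pots; pre-emerge: sown 1 d pre-spray, surface-watered after, then bottom-watered. Post-emerge: sown 8–21 d before, 2–3 leaf stage, + 0.25% v/v NIS, bottom-watered. Acetone, 187 l/ha track spray, 15–1000 g ai/ha. 0–100 injury score, day 14.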

[2] = test system: field corn (Zea mays L., var. Dekalb 535, CORN); assay: Post-emerge test, crop safety; settings: post-emerge, 14 days after application, rating scale 0-100
How it was run: as §1

[3] = test system: redroot pigweed (Amaranthus retroflexus, AMARE); assay: Pre-emerge test, greenhouse herbicide activity screening; settings: phytotoxicity rating 0-100, 14 days after application
How it was run: as §1

[4] = test system: ivyleaf morningglory (Ipomoea hederacea, IPOHE); assay: Post-emerge test, greenhouse herbicide activity screening; settings: post-emerge, 14 days after application, rating scale 0-100
How it was run: (§2)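 Plants grown in 10 cm pots of sandy loam mix received acetone-dissolved compounds through a moving flat-fan nozzle. Doses ranged from 15 to 1000 g ai/ha. Pre-emerge pots were seeded one day earlier, post-emerge pots 8–21 days earlier. Fourteen days on, each pot was graded 0–100 for damage.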

[5] = test system: large crabgrass (Digitaria sanguinalis, DIGSA); assay: as above; settings: post-emerge, 14 days after application, rating scale 0-100
How it was run: as §2

[6] = test system: johnsongrass (Sorghum halepense, SORHA); assay: as above; settings: post-emerge, 14 days after application, rating scale 0-100
How it was run: as §2

[7] = test system: sicklepod (Cassia obtusifolia, CASOB); assay: as above; settings: post-emerge, 14 days after application, rating scale 0-100
How it was run: as §2

[8] = test system: green foxtail (Setaria viridis, SETVI); assay: as above; settings: post-emerge, 14 days after application, rating scale 0-100
How it was run: as §2

[9] = test system: barnyardgrass (Echinochloa crus-galli, ECHCG); assay: as above; settings: post-emerge, 14 days after application, rating scale 0-100
How it was run: as §2

[10] = test system: lambsquarters (Chenopodium album, CHEAL); assay: as above; settings: post-emerge, 14 days after application, rating scale 0-100
How it was run: as §2

[11] = test system: velvetleaf (Abutilon theophrasti, ABUTH); assay: as above; settings: post-emerge, 14 days after application, rating scale 0-100
How it was run: as §2

[12] = test system: redroot pigweed (Amaranthus retroflexus, AMARE); assay: as above; settings: post-emerge, 14 days after application
How it was run: as §2

[13] = test system: ivyleaf morningglory (Ipomoea hederacea, IPOHE); assay: Pre-emerge test, greenhouse herbicide activity screening; settings: phytotoxicity rating 0-100, 14 days after application
How it was run: as §1

[14] = test system: large crabgrass (Digitaria sanguinalis, DIGSA); assay: as above; settings: phytotoxicity rating 0-100, 14 days after application
How it was run: as §1

[15] = test system: johnsongrass (Sorghum halepense, SORHA); assay: as above; settings: phytotoxicity rating 0-100, 14 days after application
How it was run: as §1

[16] = test system: sicklepod (Cassia obtusifolia, CASOB); assay: as above; settings: phytotoxicity rating 0-100, 14 days after application
How it was run: as §1

[17] = test system: green foxtail (Setaria viridis, SETVI); assay: as above; settings: phytotoxicity rating 0-100, 14 days after application
How it was run: as §1

[18] = test system: barnyardgrass (Echinochloa crus-galli, ECHCG); assay: as above; settings: phytotoxicity rating 0-100, 14 days after application
How it was run: as §1

[19] = test system: common ragweed (Ambrosia artemisizfolia L., AMBEL); assay: as above; settings: phytotoxicity rating 0-100, 14 days after application
How it was run: as §1

[20] = test system: lambsquarters (Chenopodium album, CHEAL); assay: as above; settings: phytotoxicity rating 0-100, 14 days after application
How it was run: as §1

[21] = test system: velvetleaf (Abutilon theophrasti, ABUTH); assay: as above; settings: phytotoxicity rating 0-100, 14 days after application
How it was run: as §1

[22] = test system: upland rice (Oryza sp., var. Tebonnet, RICE); assay: Pre-emerge test, crop safety; settings: crop damage rating 0-100, 14 days after application
How it was run: (§3)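 Herbicidal damage is scored 0 (none) to 100 (complete plant death) two weeks after a simulated field spray. Rates span 15–1000 g ai/ha, delivered in acetone at 187 l/ha. For post-emergence treatments, plants have 2–3 leaves and the spray carries 0.25% v/v non-ionic surfactant.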

[23] = test system: field corn (Zea mays L., var. Dekalb 535, CORN); assay: Pre-emerge test, crop safety; settings: crop damage rating 0-100, 14 days after application
How it was run: as §3

With Cn1c(C(F)(F)F)cc(=O)n(-c2ccc(Cl)cc2NC(=O)Oc2ccccc2)c1=O [4-50] the “phytotoxicity rating RICE (crop damage)” value ([1]; 63 g ai/ha) was 0, the “phytotoxicity rating RICE (crop damage)” value ([1]; 250 g ai/ha) was 0 and the “phytotoxicity rating CORN (crop damage)” value ([2]; 63 g ai/ha) was 0. The “phytotoxicity rating CORN (crop damage)” value ([2]; 250 g ai/ha) was 10, the “Pre-emerge Herbicidal Activity AMARE” value ([3]; 63 g ai/ha) was 20 and the “Pre-emerge Herbicidal Activity AMARE” value ([3]; 250 g ai/ha) was 100. The “phytotoxicity rating IPOHE” value ([4]; 63 g ai/ha) was 30, the “phytotoxicity rating IPOHE” value ([4]; 250 g ai/ha) was 90 and the “phytotoxicity rating DIGSA” value ([5]; 63 g ai/ha) was 0. The “phytotoxicity rating DIGSA” value ([5]; 250 g ai/ha) was 0, the “phytotoxicity rating SORHA” value ([6]; 63 g ai/ha) was 0 and the “phytotoxicity rating SORHA” value ([6]; 250 g ai/ha) was 0. The “phytotoxicity rating CASOB” value ([7]; 63 g ai/ha) was 0, the “phytotoxicity rating CASOB” value ([7]; 250 g ai/ha) was 20 and the “phytotoxicity rating SETVI” value ([8]; 63 g ai/ha) was 0. For the same molecule, the “phytotoxicity rating SETVI” value ([8]; 250 g ai/ha) was 0, the “phytotoxicity rating ECHCG” value ([9]; 63 g ai/ha) was 0 and the “phytotoxicity rating ECHCG” value ([9]; 250 g ai/ha) was 0. The “phytotoxicity rating CHEAL” value ([10]; 63 g ai/ha) was 40, the “phytotoxicity rating CHEAL” value ([10]; 250 g ai/ha) was 95 and the “phytotoxicity rating ABUTH” value ([11]; 63 g ai/ha) was 60. For the same molecule, the “phytotoxicity rating ABUTH” value ([11]; 250 g ai/ha) was 95, the “phytotoxicity rating AMARE” value ([12]; 63 g ai/ha, rating scale 0-100 (0 no damage, 100 complete death)) was 30 and the “phytotoxicity rating AMARE” value ([12]; 250 g ai/ha, rating scale 0-100) was 70. For the same molecule, the “Pre-emerge Herbicidal Activity IPOHE” value ([13]; 63 g ai/ha) was 0, the “Pre-emerge Herbicidal Activity IPOHE” value ([13]; 250 g ai/ha) was 30 and the “Pre-emerge Herbicidal Activity DIGSA” value ([14]; 63 g ai/ha) was 0. The “Pre-emerge Herbicidal Activity DIGSA” value ([14]; 250 g ai/ha) was 30, the “Pre-emerge Herbicidal Activity SORHA” value ([15]; 63 g ai/ha) was 0 and the “Pre-emerge Herbicidal Activity SORHA” value ([15]; 250 g ai/ha) was 0. For the same molecule, the “Pre-emerge Herbicidal Activity CASOB” value ([16]; 63 g ai/ha) was 0, the “Pre-emerge Herbicidal Activity CASOB” value ([16]; 250 g ai/ha) was 0 and the “Pre-emerge Herbicidal Activity SETVI” value ([17]; 63 g ai/ha) was 0. The “Pre-emerge Herbicidal Activity SETVI” value ([17]; 250 g ai/ha) was 10, the “Pre-emerge Herbicidal Activity ECHCG” value ([18]; 63 g ai/ha) was 0 and the “Pre-emerge Herbicidal Activity ECHCG” value ([18]; 250 g ai/ha) was 0. For the same molecule, the “Pre-emerge Herbicidal Activity AMBEL” value ([19]; 63 g ai/ha) was 0, the “Pre-emerge Herbicidal Activity AMBEL” value ([19]; 250 g ai/ha) was 0 and the “Pre-emerge Herbicidal Activity CHEAL” value ([20]; 63 g ai/ha) was 40. The “Pre-emerge Herbicidal Activity CHEAL” value ([20]; 250 g ai/ha) was 100, the “Pre-emerge Herbicidal Activity ABUTH” value ([21]; 63 g ai/ha) was 20 and the “Pre-emerge Herbicidal Activity ABUTH” value ([21]; 250 g ai/ha) was 100. For the same molecule, the “Pre-emerge Herbicidal Activity RICE” value ([22]; 63 g ai/ha) was 0, the “Pre-emerge Herbicidal Activity RICE” value ([22]; 250 g ai/ha) was 10 and the “Pre-emerge Herbicidal Activity CORN” value ([23]; 63 g ai/ha) was 0. For the same molecule, the “Pre-emerge Herbicidal Activity CORN” value ([23]; 250 g ai/ha) was 0.
